Assays:
[1] = test system: luciferase-expressing L. major parasites developing intracellularly inside RAW 264.7 macrophages; experiment: Leishmania major intracellular amastigote assay in RAW 264.7 macrophages (luciferase); format: cell-based; details: RAW264.7, 96 hours, read-out: IC50: I Org. intracellular amastigote Growth L. major, 4 d
Method in brief: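 RAW 264.7 macrophages infected overnight with luciferase-expressing L. major promastigotes, washed of extracellular parasites, then exposed to two-fold compound dilutions (final 0.5-10,000 ng/ml) for 96 h at 37° C, 5% CO2. Luciferin luminescence after 30 min; IC50 by sigmoidal variable-slope regression.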

[2] = test system: TdTomato-modified T. cruzi (CL strain) in Vero cells; experiment: In vitro IC50 measurement of T. cruzi amastigote killing using TdTomato-modified T. cruzi (CL strain); format: cell-based; details: Trypanosoma cruzi, 72 h, fluorescence, read-out: IC50: I Org. amastigote Growth T. cruzi CL TdTomato, 3 d
Method in brief: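 Vero cells were infected with tdTomato-expressing CL-strain parasites and dosed at 5 uM–5 nM. Fluorescence (ex 544/em 612 nm) was read at day 0 and again after 72 h at 37 °C, with day 0 values subtracted. IC50 and IC90 came from nonlinear regression.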

Compound	IC50 [1] [nM]	IC50 [2] [nM]
O=C(Nc1ccc2c(c1)B(O)OC2)c1nnn(-c2ccc(F)cc2)c1C(F)(F)F [Example 70, 1-(4-Fluorophenyl)-N-(1-hydroxy-1,3-dihydrobenzo[c][1,2]oxaborol-6-yl)-5-(trifluoromethyl)-1H-1,2,3-triazole-4-carboxamide]	≤ 1000	
O=C(Nc1ccc2c(c1)B(O)OC21CCC1)c1cn(-c2cccnc2)nn1 [Example 8, N-(1-hydroxy-1H-spiro[benzo[c][1,2]oxaborole-3,1′-cyclobutan]-6-yl)-1-(pyridin-3-yl)-1H-1,2,3-triazole-4-carboxamide]	10000 to 50000	1100 to 10000
Cc1c(C(=O)Nc2ccc3c(c2)B(O)OC3)nnn1-c1ccccn1 [Example 84, N-(1-hydroxy-1,3-dihydrobenzo[c][1,2]oxaborol-6-yl)-5-methyl-1-(pyridin-2-yl)-1H-1,2,3-triazole-4-carboxamide]	1100 to 9900	600 to 1000
COc1ccc(-n2cc(C(=O)Nc3ccc4c(c3)B(O)OC4C)nn2)cc1 (centres unmarked) [Example 22, N-(1-hydroxy-3-methyl-1,3-dihydrobenzo[c][1,2]oxaborol-6-yl)-1-(4-methoxyphenyl)-1H-1,2,3-triazole-4-carboxamide]	≤ 1000	< 600
Cc1c(C(=O)Nc2ccc3c(c2)B(O)OC3C)nnn1-c1ccccn1 (centres unmarked) [Example 24, N-(1-hydroxy-3-methyl-1,3-dihydrobenzo[c][1,2]oxaborol-6-yl)-5-methyl-1-(pyridin-2-yl)-1H-1,2,3-triazole-4-carboxamide]	≤ 1000	< 600
O=C(Nc1ccc2c(c1)B(O)OC2)c1nnn(-c2ccccc2F)c1C(F)(F)F [Example 67, 1-(2-Fluorophenyl)-N-(1-hydroxy-1,3-dihydrobenzo[c][1,2]oxaborol-6-yl)-5-(trifluoromethyl)-1H-1,2,3-triazole-4-carboxamide]	≤ 1000	
COc1ccc(-n2cc(C(=O)Nc3ccc4c(c3)B(O)OC4)nn2)cc1 [Example 21, N-(1-hydroxy-1,3-dihydrobenzo[c][1,2]oxaborol-6-yl)-1-(4-methoxyphenyl)-1H-1,2,3-triazole-4-carboxamide]	≤ 1000	< 600
COc1ccc(-n2nnc(C(=O)Nc3ccc4c(c3)B(O)OC43CCC3)c2C)cc1 [Example 20, N-(1-hydroxy-1H-spiro[benzo[c][1,2]oxaborole-3,1′-cyclobutan]-6-yl)-1-(4-methoxyphenyl)-5-methyl-1H-1,2,3-triazole-4-carboxamide]	10000 to 50000	1100 to 10000
Cc1ccc(-n2nnc(C(=O)Nc3ccc4c(c3)B(O)OC43CCC3)c2C)cc1 [Example 16, N-(1-hydroxy-1H-spiro[benzo[c][1,2]oxaborole-3,1′-cyclobutan]-6-yl)-5-methyl-1-(p-tolyl)-1H-1,2,3-triazole-4-carboxamide]	10000 to 50000	1100 to 10000
Cc1ccc(-n2cc(C(=O)Nc3ccc4c(c3)B(O)OC4C)nn2)cc1 (centres unmarked) [Example 18, N-(1-hydroxy-3-methyl-1,3-dihydrobenzo[c][1,2]oxaborol-6-yl)-1-(p-tolyl)-1H-1,2,3-triazole-4-carboxamide]	≤ 1000	< 600
O=C(Nc1ccc2c(c1)B(O)OC2)c1nnn(-c2ccccc2)c1C(F)(F)F [Example 68, N-(1-hydroxy-1,3-dihydrobenzo[c][1,2]oxaborol-6-yl)-1-phenyl-5-(trifluoromethyl)-1H-1,2,3-triazole-4-carboxamide]	≤ 1000	
Cc1ccc(-n2nnc(C(=O)Nc3ccc4c(c3)B(O)OC4)c2C)cc1 [Example 11, N-(1-hydroxy-1,3-dihydrobenzo[c][1,2]oxaborol-6-yl)-5-methyl-1-(p-tolyl)-1H-1,2,3-triazole-4-carboxamide]	1100 to 9900	1100 to 10000
Cc1c(C(=O)Nc2ccc3c(c2)B(O)OC32CCC2)nnn1-c1ccccc1 [Example 4, N-(1-hydroxy-1H-spiro[benzo[c][1,2]oxaborole-3,1′-cyclobutan]-6-yl)-5-methyl-1-phenyl-1H-1,2,3-triazole-4-carboxamide]	≤ 1000	600 to 1000
CC1OB(O)c2cc(NC(=O)c3cn(-c4ccccc4)nn3)ccc21 (centres unmarked) [Example 2]	≤ 1000	< 600
Cc1c(C(=O)Nc2ccc3c(c2)B(O)OC3C)nnn1-c1ccc(F)cc1 (centres unmarked) [Example 6, 1-(4-fluorophenyl)-N-(1-hydroxy-3-methyl-1,3-dihydrobenzo[c][1,2]oxaborol-6-yl)-5-methyl-1H-1,2,3-triazole-4-carboxamide]	≤ 1000	600 to 1000
CC1OB(O)c2cc(NC(=O)c3cn(-c4cccnc4)nn3)ccc21 (centres unmarked) [Example 12, N-(1-hydroxy-3-methyl-1,3-dihydrobenzo[c][1,2]oxaborol-6-yl)-1-(pyridin-3-yl)-1H-1,2,3-triazole-4-carboxamide]	1100 to 9900	600 to 1000
Cc1c(C(=O)Nc2ccc3c(c2)B(O)OC3)nnn1-c1cccnc1 [Example 93, N-(1-hydroxy-1,3-dihydrobenzo[c][1,2]oxaborol-6-yl)-5-methyl-1-(pyridin-3-yl)-1H-1,2,3-triazole-4-carboxamide]	10000 to 50000	1100 to 10000

Compound	IC50 [1] [nM]	IC50 [2] [nM]
CC1OB(O)c2cc(NC(=O)c3cn(-c4ccccn4)nn3)ccc21 (centres unmarked) [Example 23, N-(1-hydroxy-3-methyl-1,3-dihydrobenzo[c][1,2]oxaborol-6-yl)-1-(pyridin-2-yl)-1H-1,2,3-triazole-4-carboxamide]	≤ 1000	< 600
O=C(Nc1ccc2c(c1)B(O)OC2)c1cn(-c2ccccn2)nn1 [Example 61, N-(1-hydroxy-1,3-dihydrobenzo[c][1,2]oxaborol-6-yl)-1-(pyridin-2-yl)-1H-1,2,3-triazole-4-carboxamide]	1100 to 9900	< 600
Cc1ccc(-n2cc(C(=O)Nc3ccc4c(c3)B(O)OC43CCC3)nn2)cc1 [Example 15]	10000 to 50000	1100 to 10000
Cc1c(C(=O)Nc2ccc3c(c2)B(O)OC32CCC2)nnn1-c1ccc(F)cc1 [Example 9, 1-(4-fluorophenyl)-N-(1-hydroxy-1H-spiro[benzo[c][1,2]oxaborole-3,1′-cyclobutan]-6-yl)-5-methyl-1H-1,2,3-triazole-4-carboxamide]	10000 to 50000	1100 to 10000
Cc1c(C(=O)Nc2ccc3c(c2)B(O)OC3)nnn1-c1ccccc1 [Example 89, A-(1-hydroxy-1,3-dihydrobenzo[c][1,2]oxaborol-6-yl)-5-methyl-1-phenyl-1H-1,2,3-triazole-4-carboxamide]	≤ 1000	
O=C(Nc1ccc2c(c1)B(O)OC2)c1nnn(-c2cccc(F)c2)c1C(F)(F)F [Example 69, 1-(3-Fluorophenyl)-N-(1-hydroxy-1,3-dihydrobenzo[c][1,2]oxaborol-6-yl)-5-(trifluoromethyl)-1H-1,2,3-triazole-4-carboxamide]	≤ 1000	
O=C(Nc1ccc2c(c1)B(O)OC2)c1nnn(-c2cccnc2)c1C(F)(F)F [Example 71, N-(1-hydroxy-1,3-dihydrobenzo[c][1,2]oxaborol-6-yl)-1-(pyridin-3-yl)-5-(trifluoromethyl)-1H-1,2,3-triazole-4-carboxamide]	≤ 1000	
Cc1c(C(=O)Nc2ccc3c(c2)B(O)OC32CCC2)nnn1-c1cccnc1 [Example 17, N-(1-hydroxy-1H-spiro[benzo[c][1,2]oxaborole-3,1′-cyclobutan]-6-yl)-5-methyl-1-(pyridin-3-yl)-1H-1,2,3-triazole-4-carboxamide]	10000 to 50000	1100 to 10000
COc1ccc(-n2nnc(C(=O)Nc3ccc4c(c3)B(O)OC4C)c2C)cc1 (centres unmarked) [Example 19, N-(1-hydroxy-3-methyl-1,3-dihydrobenzo[c][1,2]oxaborol-6-yl)-1-(4-methoxyphenyl)-5-methyl-1H-1,2,3-triazole-4-carboxamide]	≤ 1000	600 to 1000
Cc1ccc(-n2cc(C(=O)Nc3ccc4c(c3)B(O)OC4)nn2)cc1 [Example 10, N-(1-hydroxy-1,3-dihydrobenzo[c][1,2]oxaborol-6-yl)-1-(p-tolyl)-1H-1,2,3-triazole-4-carboxamide]	≤ 1000	< 600
Cc1ccc(-n2nnc(C(=O)Nc3ccc4c(c3)B(O)OC4C)c2C)cc1 (centres unmarked) [Example 13, N-(1-hydroxy-3-methyl-1,3-dihydrobenzo[c][1,2]oxaborol-6-yl)-5-methyl-1-(p-tolyl)-1H-1,2,3-triazole-4-carboxamide]	1100 to 9900	600 to 1000
O=C(Nc1ccc2c(c1)B(O)OC21CCC1)c1cn(-c2ccccc2)nn1 [Example 3, N-(1-hydroxy-1H-spiro[benzo[c][1,2]oxaborole-3,1′-cyclobutan]-6-yl)-1-phenyl-1H-1,2,3-triazole-4-carboxamide]	≤ 1000	1100 to 10000
O=C(Nc1ccc2c(c1)B(O)OC21CCC1)c1cn(-c2ccccn2)nn1 [Example 26, N-(1-hydroxy-1H-spiro[benzo[c][1,2]oxaborole-3,1′-cyclobutan]-6-yl)-1-(pyridin-2-yl)-1H-1,2,3-triazole-4-carboxamide]	1100 to 9900	1100 to 10000
CC1OB(O)c2cc(NC(=O)c3cn(-c4ccc(F)cc4)nn3)ccc21 (centres unmarked) [Example 5]	≤ 1000	600 to 1000
Cc1c(C(=O)Nc2ccc3c(c2)B(O)OC3C)nnn1-c1cccnc1 (centres unmarked) [Example 14]	1100 to 9900	1100 to 10000
COc1ccc(-n2nnc(C(=O)Nc3ccc4c(c3)B(O)OC4)c2C)cc1 [Example 91, N-(1-hydroxy-1,3-dihydrobenzo[c][1,2]oxaborol-6-yl)-1-(4-methoxyphenyl)-5-methyl-1H-1,2,3-triazole-4-carboxamide]	1100 to 9900	
